The values below come from a melting point compilation (Tetko et al.; mined from patent text by program, amines drawn as free bases though some values may be those of a salt).

As a reminder, the melting point is the temperature, or range, at which the solid turns liquid.

Compound `CS(=O)(=O)c1ccc(Cl)cc1[N+](=O)[O-]` gave a melting point of 145 °C.

The compound `COc1ccc(OCc2ccccc2)cc1N` came in with a melting point of 81 °C.

`COC(=O)C1(S(=O)(=O)N2CC=C(c3ccc(-c4ccccc4)c(C)c3)CC2)CCOCC1`: the melting point was 117 to 119 °C.

Compound `CC(C)Oc1cc(CCC(=O)NS(=O)(=O)CCCc2ccccc2)n(Cc2ccc(Cl)cc2Cl)n1` had a melting point of 132 to 134 °C.

In the case of `CS(=O)(=O)c1ccc(-c2sc(-c3ccccc3Cl)nc2-c2ccc(Cl)cc2)cc1`, the melting point was 177 to 179 °C.

For the compound `Nc1c(CC(=O)O)cccc1Oc1ccccc1Cl`, the melting point fell in the range of 86 to 90 °C.

In turn, `CC(C)(C)OC(=O)NCCCc1ccccc1OCc1ccccc1` had a melting point of 50 to 52 °C.

For `Nc1[nH]nc(-c2ccc(Cl)cc2)c1-c1ccncc1`, the melting point was more than 300 °C.

`CC1=C(c2ccc(C(=O)N3Cc4cccn4Cc4ccccc43)cc2)CCCC1`: the melting point lay in the range of 119 to 120 °C.

With `COc1ccc(-n2nnnc2C(F)(F)F)cc1C1=CC2(CCCN(C(=O)c3ccccc3)C2)OC1` (configuration not stated), the melting point fell in the range of 154 to 156 °C.

Take `COc1ccc2[nH]c(S(=O)Cc3ncc(F)c(N4CCOCC4)c3C)nc2c1` (configuration not stated): the melting point lay within 158 to 160 °C.

`CCNCCC(=O)N1c2ccccc2CCc2ccc(NC(=O)OCC)cc21`: the melting point stood at 150 °C.

Turning to `CCOC(=O)C(Cc1ccc(C(N)=S)cc1)(NC(C)=O)C(=O)OCC`, the melting point fell in the range of 168 to 172 °C.

`CC[C@H](CS[C@@H](CCc1ccccc1C(C)(C)O)c1cccc(C=Cc2ccc3ccc(Cl)cc3n2)c1)C(=O)O` showed a melting point of 115 to 117 °C.

Compound `Cn1ncnc1COc1nc2c(cc1-c1cccc(F)c1)nnn2-c1c(F)cccc1F` came in with a melting point of 137 to 140 °C.

For `NCCNc1cc(NCCO)c(Cl)cc1[N+](=O)[O-]`, the melting point is 160 °C.

The compound `Cn1ccc(-c2cccc(C=O)n2)n1` displayed a melting point of 98 to 100 °C.

`C[C@@H]1COC(=O)N1c1nc(-c2cccc(C#N)c2)cs1`: the melting point was in the range of 187 to 189 °C.

In turn, `CC(C#N)=C1CCN(c2ccc(N3C[C@H](CNC(=O)C(F)F)OC3=O)cc2F)CC1` had a melting point of 172 to 174 °C.

Take `COC(=O)c1csc(C)c1NS(=O)(=O)NC(=O)Nc1nc(OC)cc(OC)n1`: the melting point is 174 °C.

`COc1cc(COc2nn(-c3ccccc3)cc2C=CC(=O)NNC(C)=O)ccc1OCc1nc(-c2ccco2)oc1C` showed a melting point of 221 to 222 °C.

For `O=c1ccc(-c2ccc(Cc3nn[nH]n3)cc2)cn1Cc1ccc(Cl)cc1`, the melting point is 231 °C.

Regarding `CNC(=O)C1C(C)(C)C1(C)C`, the melting point came to 98 °C.

In turn, `CCC(=O)c1cc(C)nc2c1c(C)nn2-c1c(C)cc(C)cc1C` registered a melting point of 117 to 118 °C.

In the case of `C=CCOC(=O)c1ccc(C(=O)NCc2ccc3c(c2CO)C(C)(C)CCC3(C)C)cc1`, the melting point lay in the range of 140 to 145 °C.

In turn, `COC(=O)c1cc(C(=O)NC2CCCC2)c2cc(Cc3ccc(F)cc3)cnc2c1O` displayed a melting point of 221 to 222 °C.

Consider `CCOC(=O)c1cnn2c1c(NC1CCCCC1)nc1ccccc12`, for which the melting point was 132 to 135 °C.

Consider `CCCCCc1cc2c(nc(O)n2CC2CCN(C(C)=O)CC2)c(N)n1`, for which the melting point lay within 228 to 231 °C.

In turn, `Nc1ccc(F)cc1-c1ccc(Cl)c(Cl)c1` came in with a melting point of 58 °C.

In turn, `O=[N+]([O-])c1cc(Cl)ccc1/C=C/c1ccc(Cl)cc1[N+](=O)[O-]` yielded a melting point of 247 to 248 °C.

Compound `CCOC(NC(=O)c1ccccc1)C(N)=O` (configuration not stated) came in with a melting point of 148 to 150 °C.

As for `CCOC(=O)c1nn(C(=O)Nc2ccccc2)c(C)c1C`, the melting point is 139 to 140 °C.

In the case of `CCCCC1=NC2(CCCC2)C(=O)N1Cc1ccc(-c2ccccc2S(=O)(=O)Nc2noc(C)c2C)c(COCC)c1`, the melting point was determined as 148 °C.

Turning to `Cc1ccc(C(=O)N2CCC3(CC2)OCCO3)cc1`, the melting point is 59 to 61 °C.

Turning to `CC[C@H](C1CC1)n1cc(Cl)nc(N2CCc3cc(OC)cc(C)c32)c1=O`, the melting point was 156 to 158 °C.

With `N#Cc1cc(C(=O)NNC(=O)c2occc2-c2ccccc2-c2ccccc2)ccc1O`, the melting point is 159 to 162 °C.

Compound `CC(C)(C)C(O)c1cncnc1` (configuration not stated) displayed a melting point of 94 to 96 °C.

`CC(=O)NC[C@H]1CN(c2ccc(N3C[C@H]4CN(C(=O)OCc5ccccc5)C[C@H]4C3)c(F)c2)C(=O)O1` displayed a melting point of 165 to 168 °C.

Take `ClC=C(Cl)n1c2ccccc2c2ccccc21`: the melting point lay within 51 to 53 °C.

The compound `COC12CC(CNC(=S)NC(C)=O)CN(C)C1Cc1cn(C)c3cccc2c13` (configuration not stated) displayed a melting point of 170 to 172 °C.

For the compound `Cc1ccnc(-c2c(C)noc2C)c1OC1SCC(O)C(O)C1O` (configuration not stated), the melting point lay in the range of 70 to 100 °C.

In turn, `O=S(=O)(Cc1ccccc1)N1CCC(c2ccc(O)cc2O)CC1` registered a melting point of 207 to 208 °C.

As for `Cn1c2c(c3ccccc3c1=O)C(=O)c1cc3c(cc1-2)OCO3`, the melting point was 310 to 312 °C.

`CCOC(=O)C(C)(C)Oc1ccc(CCCC(=O)NN(Cc2cc(F)cc(F)c2)C(N)=O)cc1`: the melting point fell in the range of 108 to 109 °C.

For the compound `CCOc1ncc(C(=O)O)c2c(N)cccc12`, the melting point was 159 to 165 °C.

Take `CCN(CC)c1ccc([N+](=O)[O-])cn1`: the melting point fell in the range of 75 to 76 °C.

`Nc1c(-c2ccc(C(F)(F)F)cc2)nc2ccc(F)cc2c1C(=O)O` registered a melting point of 260 to 262 °C.

The compound `O=C(O)CCCCCc1nn(-c2ccc([N+](=O)[O-])cc2)c2c1CCC2` displayed a melting point of 131 to 132 °C.

`Cc1c(-c2ccccc2)n(-c2ccccc2)c(-c2ccc(C#N)cc2)cc1=O` gave a melting point of 229 to 233 °C.

`CC(=O)c1cccc(C(=O)NC(Nc2c(Nc3cccnc3)c(=O)c2=O)C(C)(C)C)c1` (configuration not stated) yielded a melting point of 218 to 219 °C.

For the compound `CN(C)CCCN1N=C2C(=Cc3ccccc3)CS(=O)CC2C1c1ccccc1` (configuration not stated), the melting point lay in the range of 155 to 160 °C.

`COc1ccc2c(c1)[C@@H](O)[C@H](Br)CO2` (relative stereo): the melting point was 67 to 72 °C.

The compound `Cc1nc(-c2ccc3c(c2)COC(N[C@@H]2CCc4ccccc42)=N3)no1` came in with a melting point of 138 °C.

As to `CNC(=O)c1cc2c(nc(C)n2C)c2c1C(=O)CC1(Cc3ccccc3C1)N2`, the melting point turned out to be 261 °C.

For the compound `COc1ccc(C2CC3(C)C(C=CC3(C)O)C3CCC4=CC(=O)CCC4C23)cc1` (configuration not stated), the melting point was 192 °C.

Turning to `CC=CCn1c(=O)n(C2OC(CO)C(O)C2O)c2nc(N)[nH]c(=O)c21` (configuration not stated), the melting point was in the range of 167 to 170 °C.

The compound `FC(F)(F)C1(c2cc(Cl)cc(Cl)c2)CC(c2ccc(-n3cncn3)cc2)=NO1` (configuration not stated) gave a melting point of more than 250 °C.

`CN1CCN(Cc2cc(-c3ccccc3)c3c(n2)OCCN(Cc2cc(C(F)(F)F)cc(C(F)(F)F)c2)C3=O)CC1`: the melting point lay in the range of 181 to 182 °C.

Take `Cc1cccc(NC(=O)NCC(=O)N(CC(=O)N2CCc3ccccc3C2)c2ccccc2)c1`: the melting point was 135 °C.

In the case of `CC(C)(C)NS(=O)(=O)c1cc([N+](=O)[O-])ccc1Cl`, the melting point is 168 to 171 °C.

Regarding `COc1ccc(CNc2ccccc2C)cc1O`, the melting point fell in the range of 104 to 105 °C.

The compound `COc1ccc2c3c(c(=O)oc2c1)CN(Cc1ccccc1Cl)CC3` yielded a melting point of 137 to 139 °C.

Compound `CCCCCCCCCCc1ccnc(C(=O)NCC(=O)O)c1` came in with a melting point of 79 to 81 °C.

Compound `NC(=O)CCCC1Cc2ccccc2C1` had a melting point of 116 to 118 °C.

As to `COC(=O)c1cc(I)ccc1N(C)S(C)(=O)=O`, the melting point lay in the range of 105 to 106 °C.

`COc1ccc(-c2cc3ccccc3[nH]2)cc1NC(=S)N[C@H](C)c1ccccc1` had a melting point of 179 to 181 °C.

In turn, `O=C(CCC(=O)N(CCCOc1ccc(C(=O)O)cc1)c1ccc(Cl)cc1)Nc1ccc(Cl)cc1` had a melting point of 197 to 201 °C.

With `CCCCCCCCCCCCCCCc1cccc(OC)c1C1NC(=O)NC(C)=C1C(=O)OC` (configuration not stated), the melting point lay in the range of 101 to 102 °C.

In turn, `Cc1cnccc1N1CCN(CC(=O)c2ccc(NS(C)(=O)=O)cc2)CC1` displayed a melting point of 201 to 205 °C.

As for `Cc1ccc(NC(=O)Nc2ccc(-c3c(Cc4cccnc4)sc4ncnc(N)c34)cc2)cc1`, the melting point lay in the range of 220 to 223 °C.

`C=CC(=O)NC(C)(C)c1ccc(CC(=O)OCCC)cc1` gave a melting point of 71 to 72 °C.

Turning to `Cc1ccc(S(=O)(=O)N2C[C@H](O)C[C@H]2CO)cc1`, the melting point was 127 °C.

For `CC1(C)Oc2ccc(C#N)cc2[C@H](N(Cc2ccco2)c2ncco2)[C@H]1O`, the melting point amounted to 63 °C.

`NS(=O)(=O)c1ccc(N2N=C(C(F)(F)F)CC2c2ccccc2)cc1` (configuration not stated) had a melting point of 132 to 135 °C.

Compound `CC(=O)N1CCC(C)(C)c2cc(F)cc(CCN3CCN(c4noc5ccccc45)CC3)c21` displayed a melting point of 112 °C.

Compound `O=C(O)C(Oc1ccc(F)c(C(F)(F)F)c1)c1ccc(Cl)cc1` (configuration not stated) came in with a melting point of 106 °C.

`CC(=O)OCC1OC(n2c(Cl)c(C=O)c3cc(Cl)c(Cl)cc32)C(O)C1O` (configuration not stated): the melting point lay within 154 to 155 °C.

Regarding `CC(C)C(Nc1ccc(C(F)(F)F)cc1)C(N)=O` (configuration not stated), the melting point is 93 to 94 °C.

Compound `COc1cccc2cc(C(=O)O)oc(=O)c12` showed a melting point of 251 to 253 °C.

The compound `CCOC(=O)CN1C(=O)Nc2cccc(Cl)c2C1C` (configuration not stated) came in with a melting point of 143 to 144 °C.

As for `COc1ccc(CNc2ccc(Cl)cc2C(=O)C(F)(F)F)cc1`, the melting point was 82 to 84 °C.

Regarding `COc1cc(Oc2csc(C(F)(F)F)c2)nc(-c2ccc(C(F)(F)F)cc2)n1`, the melting point lay within 91 to 93 °C.

On to `COc1ccc(S(=O)(=O)N(CCC(=O)N2CCC(C(=O)O)CC2)C(CCc2ccccc2)C(=O)NO)cc1` (configuration not stated), for which the melting point lay in the range of 85 to 92 °C.

`N#Cc1ccccc1-c1ccc2cc(CBr)ccc2c1` yielded a melting point of 171 to 172 °C.

`N#CC1=C(Nc2ccc(Br)cc2)CCC1` displayed a melting point of 136 to 138 °C.

As to `CC1(C)CC(=O)C(C(=O)c2ccc(Cl)cc2[N+](=O)[O-])C(=O)N1` (configuration not stated), the melting point is 162 °C.

As to `COc1cccc2c1nc(C(F)F)n2-c1nc(NC2CCN(C(=O)OC(C)(C)C)CC2)c(N)c(N2CCOCC2)n1`, the melting point lay within 223 to 225 °C.
